Measurements published in US12180207B2 (ARRAY BIOPHARMA INC., priority 2018, dated 2024).
pIC50: −log10 of the molar value.

What was measured:
[1] = target: recombinant human FGFR3 (amino acids R397-T806) (Homo sapiens (Human), UniProt P22607); test: FGFR3 enzyme activity assay (LanthaScreen TR-FRET); assay type: biochemical; settings: 25 μM ATP, 10 min incubation at 22° C., average of multiple determinations if made, read-out: FGFR3 Enz FRET IC50
Method: FGFR3 kinase activity was measured by the Invitrogen LanthaScreen™ Assay technology which directly measures the amount of substrate phosphorylation by TR-FRET using a fluorescently-labeled peptide and Europium-labeled antibody. Briefly, […] N-terminal GST-HIS6 fusion protein with a 3C cleavage site recombinant human FGFR3 (amino acids R397-T806) (ProQinase Cat. No. 1068-0000-1) was incubated with 100 nM Alexa Fluor® 647-Poly-GT Peptide Substrate (Life Technologies Cat. No. PV5836) and 25 μM ATP along with test compound in a buffer consisting of 250 mM HEPES, 25 mM MgCl2, 0.05% TritonX-100, pH 7.5, and 2% DMSO. […] After a 10 minute incubation at 22° C., an equal volume of 2 nM LanthaScreen® Eu-PY20 Antibody (Life Technologies Cat. No. PV5691) and 10 mM EDTA were added to quench the kinase reaction and start the detection reaction. After an additional 60 minute incubation at 22° C., the reaction was measured using a PerkinElmer EnVision multimode plate reader via TR-FRET dual wavelength detection, and the percent of control (POC) calculated using a ratiometric emission factor. 100 POC was determined using no test compounds and 0 POC was determined using no enzyme. The POC values were fit to a 4-parameter logistic curve as a function of the concentration of the compound, and the IC50 value is the point where the curve crosses 50 POC.

[2] = target: recombinant human FGFR2 cytoplasmic domain (amino acids 403-822) (Homo sapiens (Human), UniProt P21802); test: FGFR2 enzyme activity assay (LanthaScreen TR-FRET); assay type: biochemical; settings: 15 μM ATP, 20 min incubation at 22° C., average of multiple determinations if made, read-out: FGFR2 Enz FRET IC50
Method: FGFR2 kinase activity was measured by the Invitrogen LanthaScreen™ Assay technology which directly measures the amount of substrate phosphorylation by TR-FRET using a fluorescently-labeled peptide and Europium-labeled antibody. Briefly, […] His-tagged recombinant human FGFR2 cytoplasmic domain (amino acids 403-822) (Life Technologies Cat. No. PR5332A) was incubated with 100 nM Alexa Fluor® 647-Poly-GT Peptide Substrate (Life Technologies Cat. No. PV5836) and 15 μM ATP along with test compound in a buffer consisting of 250 mM HEPES, 25 mM MgCl2, 0.05% TritonX-100, pH 7.5, and 2% DMSO. […] After a 20 minute incubation at 22° C., an equal volume of 2 nM LanthaScreen® Eu-PY20 Antibody (Life Technologies Cat. No. PV5691) and 10 mM EDTA were added to quench the kinase reaction and start the detection reaction. After an additional 60 minute incubation at 22° C., the reaction was measured using a PerkinElmer EnVision multimode plate reader via TR-FRET dual wavelength detection, and the percent of control (POC) calculated using a ratiometric emission factor. 100 POC was determined using no test compounds and 0 POC was determined using no enzyme. The POC values were fit to a 4-parameter logistic curve as a function of the concentration of the compound, and the IC50 value is the point where the curve crosses 50 POC.

[3] = target: phosphorylated FGFR3 (SEQ ID NO: 5, amino acids 449 to 759) (Homo sapiens (Human), UniProt P22607); test: FGFR enzyme binding assay (HTRF tracer displacement), FGFR3; settings: 5 nM phosphorylated FGFR3, average of multiple determinations if made
Method: (§1) The potency of compounds inhibiting human isoforms of FGFR kinase was determined using Life Technologies' Homogeneous Time Resolved Fluorescence (HTRF)-based binding assay technology. […] After a 60 minute incubation at 22° C., the extent of tracer displacement was determined using a PerkinElmer EnVision multimode plate reader via HTRF dual wavelength detection, and the percent of control (POC) was calculated using a ratiometric emission factor. One hundred POC was determined using no test compound, and 0 POC was determined in the presence of 1 μM of an appropriate control inhibitor.

[4] = target: dephosphorylated FGFR1 (SEQ ID NO: 1, amino acids 458 to 765) (Homo sapiens (Human), UniProt P11362); test: FGFR enzyme binding assay (HTRF tracer displacement), FGFR1; settings: 5 nM dephosphorylated FGFR1, average of multiple determinations if made
Method: as §1

[5] = target: FGFR3 (SEQ ID NO: 5, amino acids 449-759) (Homo sapiens (Human), UniProt P22607); test: LC/MS FGFR3 kobs assay (covalent protein modification); assay type: binding; settings: 500 nM FGFR3, 3 μM compound
Method: The LC/MS FGFR1 and FGFR3 kobs assays were conducted as follows. […] At each time point, the reaction was quenched with 20 μL of 0.4% formic acid. The extent of protein modification by each compound was determined by LC/MS on an Agilent Technologies 6520 Q-TOF LC/MS. Protein signals were then automatically deconvoluted using Agilent Masshunter software. Deconvoluted mass signals were exported to Tibco Spotfire data analysis program for further processing and normalization.
Data analysis included five steps. First, the signals for the “DMSO Controls” were analyzed to determine the percent of signal associated with unmodified FGFR1 or FGFR3 at each time point. Next, the percent of the signal associated with the covalent modification was determined. Third, the average nonmodified “DMSO Control” signal was used to normalize the modified protein signals at each time point. The percent of unmodified protein was fit to an exponential decay model where A0 is the Percent Unmodified at the start of the reaction, and kobs is the observed rate constant over the time period.
Table EC contains kobs values for compounds tested in these assays, presented as the average of multiple determinations if multiple determinations were made. ND=not determined.

[6] = target: recombinant human FGFR1 catalytic domain (amino acids 308-731) (Homo sapiens (Human), UniProt P11362); test: FGFR1 enzyme activity assay (LanthaScreen TR-FRET); assay type: biochemical; settings: 20 min incubation at 22° C., average of multiple determinations if made, read-out: FGFR1 Enz FRET IC50
Method: FGFR1 kinase activity was measured by the Invitrogen LanthaScreen™ Assay technology which directly measures the amount of substrate phosphorylation by Time-resolved fluorescence energy transfer (TR-FRET) using a fluorescently-labeled peptide and Europium-labeled antibody. Briefly, […] His-tagged recombinant human FGFR1 catalytic domain (amino acids 308-731) (Life Technologies Cat. No. PR4660A) was incubated with 100 nM Alexa Fluor® 647-Poly-GT Peptide Substrate (Life Technologies Cat. No. PV5836) and […] ATP along with test compound in a buffer consisting of 250 mM HEPES, 25 mM MgCl2, 0.05% TritonX-100, pH 7.5, and 2% DMSO. […] After a 20 minutes incubation at 22° C., an equal volume of 2 nM LanthaScreen® Eu-PY20 Antibody (Life Technologies Cat. No. PV5691) and 10 mM EDTA was added to quench the kinase reaction and start the detection reaction. After an additional 60 minute incubation at 22° C., the reaction was measured using a PerkinElmer EnVision multimode plate reader via TR-FRET dual wavelength detection, and the percent of control (POC) calculated using a ratiometric emission factor. 100 POC was determined using no test compounds and 0 POC was determined using no enzyme. The POC values were fit to a 4-parameter logistic curve as a function of the concentration of the compound, and the IC50 value is the point where the curve crosses 50 POC.

Chain of dephosphorylated FGFR1 (SEQ ID NO: 1, amino acids 458 to 765) (P11362 458-765): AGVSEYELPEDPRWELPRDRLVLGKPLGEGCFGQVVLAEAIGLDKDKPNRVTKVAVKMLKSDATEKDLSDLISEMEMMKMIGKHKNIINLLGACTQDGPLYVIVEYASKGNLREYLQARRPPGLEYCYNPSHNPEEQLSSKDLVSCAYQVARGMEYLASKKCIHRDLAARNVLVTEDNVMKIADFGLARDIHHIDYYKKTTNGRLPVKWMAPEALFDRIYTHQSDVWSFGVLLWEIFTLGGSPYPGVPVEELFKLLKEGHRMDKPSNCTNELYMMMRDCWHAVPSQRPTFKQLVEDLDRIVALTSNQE
Chain of phosphorylated FGFR3 (SEQ ID NO: 5, amino acids 449 to 759) (P22607 449-759): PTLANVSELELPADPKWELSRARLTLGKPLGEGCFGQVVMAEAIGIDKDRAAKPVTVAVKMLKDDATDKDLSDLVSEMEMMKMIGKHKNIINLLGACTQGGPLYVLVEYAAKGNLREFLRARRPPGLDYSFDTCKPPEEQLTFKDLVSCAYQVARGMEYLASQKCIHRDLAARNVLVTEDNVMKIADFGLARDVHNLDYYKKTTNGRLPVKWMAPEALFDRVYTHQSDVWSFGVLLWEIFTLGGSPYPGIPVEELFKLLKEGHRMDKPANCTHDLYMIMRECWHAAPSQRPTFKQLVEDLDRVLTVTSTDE
Chain of FGFR3 (SEQ ID NO: 5, amino acids 449-759) (P22607 449-759): as above
Chain of recombinant human FGFR1 catalytic domain (amino acids 308-731) (P11362 other isoform, or with tags, fused parts or gaps): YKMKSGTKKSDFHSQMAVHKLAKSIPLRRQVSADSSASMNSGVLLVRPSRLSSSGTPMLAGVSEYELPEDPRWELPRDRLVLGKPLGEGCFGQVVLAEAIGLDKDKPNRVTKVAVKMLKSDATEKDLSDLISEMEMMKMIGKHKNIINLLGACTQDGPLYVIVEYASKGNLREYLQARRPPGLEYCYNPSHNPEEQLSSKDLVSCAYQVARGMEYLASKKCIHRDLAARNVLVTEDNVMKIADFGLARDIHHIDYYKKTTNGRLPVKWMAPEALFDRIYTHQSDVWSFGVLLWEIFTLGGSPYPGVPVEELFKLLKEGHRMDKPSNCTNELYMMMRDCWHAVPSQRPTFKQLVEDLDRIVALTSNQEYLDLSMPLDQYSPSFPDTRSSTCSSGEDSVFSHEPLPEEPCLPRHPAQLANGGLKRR
Chain of recombinant human FGFR3 (amino acids R397-T806) (P22607 397-806): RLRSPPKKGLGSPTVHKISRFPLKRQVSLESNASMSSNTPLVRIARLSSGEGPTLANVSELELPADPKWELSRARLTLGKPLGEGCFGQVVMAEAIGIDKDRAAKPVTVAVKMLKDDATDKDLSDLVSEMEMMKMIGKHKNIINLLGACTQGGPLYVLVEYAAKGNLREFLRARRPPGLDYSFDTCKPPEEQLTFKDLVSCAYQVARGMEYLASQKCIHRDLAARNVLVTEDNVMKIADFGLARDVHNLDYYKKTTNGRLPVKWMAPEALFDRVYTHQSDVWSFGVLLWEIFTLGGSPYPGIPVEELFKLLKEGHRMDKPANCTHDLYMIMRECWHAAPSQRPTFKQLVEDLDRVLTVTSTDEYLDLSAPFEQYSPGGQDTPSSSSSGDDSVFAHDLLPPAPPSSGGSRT
Chain of recombinant human FGFR2 cytoplasmic domain (amino acids 403-822) (P21802 402-821): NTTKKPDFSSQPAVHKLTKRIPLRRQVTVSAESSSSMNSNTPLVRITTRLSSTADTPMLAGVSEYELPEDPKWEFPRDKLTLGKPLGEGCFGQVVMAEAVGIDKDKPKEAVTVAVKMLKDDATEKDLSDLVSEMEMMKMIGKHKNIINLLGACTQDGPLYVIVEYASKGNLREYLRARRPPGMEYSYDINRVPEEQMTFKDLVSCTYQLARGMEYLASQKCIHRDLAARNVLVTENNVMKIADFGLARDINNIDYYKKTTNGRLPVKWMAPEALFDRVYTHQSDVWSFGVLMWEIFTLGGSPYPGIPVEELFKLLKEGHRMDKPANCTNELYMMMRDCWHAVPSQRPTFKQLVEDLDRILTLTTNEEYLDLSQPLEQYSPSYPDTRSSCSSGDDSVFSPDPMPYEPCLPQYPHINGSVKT

| pIC50 [1] | pIC50 [2] | pIC50 [3] | pIC50 [4] | FGFR3 Enz kobs [5] | pIC50 [6] | Structure (SMILES) |
| --- | --- | --- | --- | --- | --- | --- |
| 7.80 | 7.80 | 7.60 | 6.85 | 0.00025 min⁻¹ | 7.33 | C=CC(=O)N[C@H]1CC[C@H](C(=O)N2CC[C@@H](n3cc(-c4cc(OC)c5c(C#N)cnn5c4)cn3)C2)CC1 [Example 54, N-((1R,4r)-4-((R)-3-(4-(3-cyano-4-methoxypyrazolo[1,5-a]pyridin-6-yl)-1H-pyrazol-1-yl)pyrrolidine-1-carbonyl)cyclohexyl)acryl-amide] |
| 8.52 | 8.15 | 7.51 |  | 0.00112 min⁻¹ |  | C=CC(=O)N1CCC(C(=O)N2CC[C@@H](n3cc(-c4cc(OC)c5c(C#N)cnn5c4)cn3)C2)CC1 [Example 53, (R)-6-(1-(1-(1-acryloylpiperidine-4-carbonyl)pyrrolidin-3-yl)-1H-pyrazol-4-yl)-4-methoxypyrazolo[1,5-a]pyridine-3-carbonitrile] |
| 8.52 | 8.70 | 8.40 | 7.64 | 0.00153 min⁻¹ | 7.92 | C=CC(=O)NC1C2CC1C2C(=O)N1CCC(n2cc(-c3cc(OC)c4c(C#N)cnn4c3)cn2)CC1 (stereo not shown) [Example 46, N-(4-(4-(4-(3-cyano-4-methoxypyrazolo[1,5-a]pyridin-6-yl)-1H-pyrazol-1-yl)piperidine-1-carbonyl)bicyclo[1.1.1]pentan-2-yl)acrylamide] |
| 8.30 | 8.22 | 7.21 | 6.46 | 0.00064 min⁻¹ | 7.55 | C=CC(=O)N[C@H]1C[C@@H](C(=O)N2CC[C@@H](n3cc(-c4cc(OC)c5c(C#N)cnn5c4)cn3)C2)C1 [Example 61, N-((1S,3s)-3-((R)-3-(4-(3-cyano-4-methoxypyrazolo[1,5-a]pyridin-6-yl)-1H-pyrazol-1-yl)pyrrolidine-1-carbonyl)cyclobutyl)acryl-amide] |
| 8.70 | 8.30 | 7.70 | 7.03 | 0.00074 min⁻¹ | 7.64 | C=CC(=O)N1CCC[C@@H](C(=O)N2CC[C@H](n3cc(-c4cc(OC)c5c(C#N)cnn5c4)cn3)C2)C1 [Example 64, 6-(1-((S)-1-((R)-1-acryloylpiperidine-3-carbonyl)pyrrolidin-3-yl)-1H-pyrazol-4-yl)-4-methoxypyrazolo[1,5-a]pyridine-3-carbonitrile] |
| 8.70 | 8.40 | 7.59 | 6.88 | 0.0004 min⁻¹ | 7.74 | C=CC(=O)N[C@H]1CC[C@H](C(=O)N2CCC(n3cc(-c4cc(OC)c5c(C#N)cnn5c4)cn3)CC2)CC1 [Example 18, N-((1r,4r)-4-(4-(4-(3-cyano-4-methoxypyrazolo[1,5-a]pyridin-6-yl)-1H-pyrazol-1-yl)piperidine-1-carbonyl)cyclohexyl)acryl-amide] |
| 8.10 | 8.05 | 7.36 |  | 0.00116 min⁻¹ |  | C=CC(=O)N[C@H]1C[C@H](C(=O)N2CCC(n3cc(-c4cc(OC)c5c(C#N)cnn5c4)cn3)CC2)C1 [Example 45, N-((1r,3r)-3-(4-(4-(3-cyano-4-methoxypyrazolo[1,5-a]pyridin-6-yl)-1H-pyrazol-1-yl)piperidine-1-carbonyl)cyclobutyl)acryl-amide] |
| 8.70 | 8.30 | 7.19 |  | 0.00106 min⁻¹ |  | C=CC(=O)N1CCC(C(=O)N2CC[C@H](n3cc(-c4cc(OC)c5c(C#N)cnn5c4)cn3)C2)CC1 [Example 62, (S)-6-(1-(1-(1-acryloylpiperidine-4-carbonyl)pyrrolidin-3-yl)-1H-pyrazol-4-yl)-4-methoxypyrazolo[1,5-a]pyridine-3-carbonitrile] |
| 8.52 | 8.52 | 7.74 | 7.03 | 0.00051 min⁻¹ | 7.85 | C=CC(=O)N[C@H]1CC[C@@H](C(=O)N2CCC(n3cc(-c4cc(OC)c5c(C#N)cnn5c4)cn3)CC2)CC1 [Example 20, N-((1s,4s)-4-(4-(4-(3-cyano-4-methoxypyrazolo[1,5-a]pyridin-6-yl)-1H-pyrazol-1-yl)piperidine-1-carbonyl)cyclohexyl)acryl-amide] |
| 8.15 | 8.15 | 7.49 | 6.69 | 0.00083 min⁻¹ | 7.51 | C=CC(=O)N[C@H]1C[C@H](C(=O)N2CC[C@@H](n3cc(-c4cc(OC)c5c(C#N)cnn5c4)cn3)C2)C1 [Example 60, N-((1R,3r)-3-((R)-3-(4-(3-cyano-4-methoxypyrazolo[1,5-a]pyridin-6-yl)-1H-pyrazol-1-yl)pyrrolidine-1-carbonyl)cyclobutyl)acryl-amide] |
| 8.70 | 8.52 | 7.70 |  | 0.001 min⁻¹ |  | C=CC(=O)N[C@H]1C[C@@H](C(=O)N2CCC(n3cc(-c4cc(OC)c5c(C#N)cnn5c4)cn3)CC2)C1 [Example 44, N-((1s,3s)-3-(4-(4-(3-cyano-4-methoxypyrazolo[1,5-a]pyridin-6-yl)-1H-pyrazol-1-yl)piperidine-1-carbonyl)cyclobutyl)acryl-amide] |
